Calls of active or inactive are those of the source. No cut-off for these calls is given here. Square brackets hold non-standard residues; d marks the D form. Peptide text beside a SMILES is read from it. azaGly = NNC(=O)O; βAla = NCCC(=O)O
Tests used:
Assay type in all cases: functional, organism-based
Mus musculus [1] = assay: Potentiation of dl-DOPA-induced behavioral effects in ICR mouse assessed as moderate piloerection, salivation, marked increased motor activity and irritability at 2.5 mg/kg, ip administered 1 hr prior to dl-DOPA-challenge measured for 1 hr; parameters: dose 2.5 mg/kg
Mus musculus [2] = assay: Potentiation of dl-DOPA-induced behavioral effects in ICR mouse assessed as moderate piloerection, salivation, marked increased motor activity and irritability at 10 mg/kg, ip administered 1 hr prior to dl-DOPA-challenge measured for 1 hr; parameters: dose 10 mg/kg
Mus musculus [3] = assay: Suppression of oxotremorine-induced tremor in ICR mouse at 20 mg/kg, ip pretreated for 1 hr followed by oxotremorine-challenge; parameters: dose 20 mg/kg
Mus musculus [4] = assay: Potentiation of dl-DOPA-induced behavioral effects in ICR mouse assessed as slight piloerection, slight salivation and slight increased motor activity at 2.5 mg/kg, ip administered 1 hr prior to dl-DOPA-challenge measured for 1 hr; parameters: dose 2.5 mg/kg
Mus musculus [5] = assay: Potentiation of dl-DOPA-induced behavioral effects in ICR mouse assessed as slight piloerection, slight salivation and slight increased motor activity at 10 mg/kg, ip administered 1 hr prior to dl-DOPA-challenge measured for 1 hr; parameters: dose 10 mg/kg
Mus musculus [6] = assay: Suppression of oxotremorine-induced tremor in ICR mouse at 10 mg/kg, ip pretreated for 1 hr followed by oxotremorine-challenge; parameters: dose 10 mg/kg
Mus musculus [7] = assay: Suppression of oxotremorine-induced tremor in ICR mouse at 4 mg/kg, ip pretreated for 1 hr followed by oxotremorine-challenge; parameters: dose 4 mg/kg
Mus musculus [8] = assay: Potentiation of dl-DOPA-induced behavioral effects in ICR mouse assessed as marked piloerection, profuse salivation, marked increased irritability and reactivity, jumping, squeaking and aggressive fighting at 0.1 mg/kg, ip administered 1 hr prior to dl-DOPA-challenge measured for 1 hr; parameters: dose 0.1 mg/kg
Mus musculus [9] = assay: Potentiation of dl-DOPA-induced behavioral effects in ICR mouse assessed as marked piloerection, profuse salivation, marked increased irritability and reactivity, jumping, squeaking and aggressive fighting at 10 mg/kg, ip administered 1 hr prior to dl-DOPA-challenge measured for 1 hr; parameters: dose 10 mg/kg
Mus musculus [10] = assay: Potentiation of dl-DOPA-induced behavioral effects in ICR mouse assessed as marked piloerection, profuse salivation, marked increased irritability and reactivity, jumping, squeaking and aggressive fighting at 1 mg/kg, ip administered 1 hr prior to dl-DOPA-challenge measured for 1 hr; parameters: dose 1 mg/kg
Mus musculus [11] = assay: Suppression of oxotremorine-induced tremor in ICR mouse at 1 mg/kg, ip pretreated for 1 hr followed by oxotremorine-challenge; parameters: dose 1 mg/kg

SMILES | Activity (Mus musculus [2]) | Activity (Mus musculus [3]) | Activity (Mus musculus [5]) | other results
CC(=O)CNC(=O)[C@H](CC(C)C)NC(=O)[C@@H]1CCCN1 | Active | inactive | – | Activity (Mus musculus [1]): Active
CC(C)C[C@H](NC(=O)C1CCCC1)C(=O)NCC(N)=O | Active | inactive | – | Activity (Mus musculus [4]): Active
CC(C)C[C@H](NC(=O)[C@@H]1CCCN1)C(=O)N1CSC[C@@H]1C(N)=O | – | inactive | Active | –
CC(C)C[C@H](NC(=O)[C@@H]1CCCN1)C(=O)NCC#N | Active | inactive | – | Activity (Mus musculus [4]): Active
CC(C)C[C@H](NC(=O)[C@H]1CSCN1)C(=O)NCC(N)=O | – | inactive | Active | Activity (Mus musculus [6]): inactive
CC(C)C[C@H](NC(=O)[C@@H]1CCCN1)C(=O)NCC(N)=O (H-Pro-Leu-Gly-NH2) | – | Active | – | Activity (Mus musculus [7]): Active; Activity (Mus musculus [8]): Active; Activity (Mus musculus [9]): Active; Activity (Mus musculus [10]): Active; Activity (Mus musculus [11]): inactive
CNC(=O)CNC(=O)[C@H](CC(C)C)NC(=O)[C@@H]1CCCN1 (H-Pro-Leu-Gly-NHMe) | – | inactive | Active | –
CC(C)C[C@H](NC(=O)[C@@H]1CCCN1)C(=O)N1CCC[C@H]1C(N)=O (H-Pro-Leu-Pro-NH2) | – | Active | Active | Activity (Mus musculus [6]): inactive
CC(C)C[C@H](NC(=O)[C@@H]1CCCN1)C(=O)NNC(N)=O (H-Pro-Leu-[azaGly]-NH2) | – | inactive | Active | –
CC(C)C[C@H](NC(=O)[C@@H]1CCCN1)C(=O)NCCC(N)=O (H-Pro-Leu-[βAla]-NH2) | – | inactive | Active | –
CC(C)C[C@H](NC(=O)[C@@H]1CCCN1)C(=O)N1CCSC1C(N)=O (single isomer, unassigned; (-)) | Active | inactive | – | Activity (Mus musculus [4]): Active
CC(C)C[C@H](NC(=O)[C@@H]1CCCN1)C(=O)N1CCSC1C(N)=O (stereo in doubt; 9) | – | inactive | Active | –
